Reference: US4174402A, “Method for the prophylaxis of SRS-A-induced symptoms” (priority 1978, dated 1979)
“And” between values parts separate entries of the source, which are not always exact repeats. Equal values may be shown once. “Also recorded” adds a separate entry of the source.

Columns and labels:
[1] = test system: acetylcholine; assay: Test Procedure 7: acetylcholine-induced bronchoconstriction in anesthetized guinea pigs; format: in vivo, guinea pig; conditions: 100 mg/kg p.o.
Method: Guinea pigs, weighing 250-350 g were anesthetized with 1.5 g/kg i.p. of urethane and prepared for measurements of resistance to pulmonary inflation using a slightly modified Konzett-Rossler preparation (see Test Procedure 2). Histamine phosphate (5 μg/kg as base) was injected four times at 5 minute intervals in order to ascertain that the maximum bronchoconstrictor responsiveness has been obtained. Acetylcholine was injected intravenously at […] 5 minutes following the last injection of histamine and the increase in intratracheal pressure was recorded. Compound b or aminophylline (100 mg/kg p.o.) or the control vehicle were administered to five guinea pigs each, 1 hour before the injection of acetylcholine (1/2 hour before the anesthesia).

[2] = Oral toxicity, 5 weeks, Charles River CD albino rats; format: in vivo, rat
[3] = test system: SRS-A; assay: Test Procedure 3: SRS-A-induced increase in resistance to pulmonary inflation in anesthetized cats; format: in vivo, cat
Method: The trachea of each cat was cannulated, and the cats were artificially respired at 15 strokes/minute with a stroke volume of 22 ml/kg. A side-arm of the intratracheal cannula was connected to a Statham transducer, and the intratracheal pressure was recorded continuously on a polygraph. One femoral vein was cannulated in all cats receiving intravenous administration of drugs. In addition, most of the cats were cannulated through the femoral artery; this cannula was attached to another Statham transducer, and the blood pressure of these cats recorded. All cats received 1.0 mg/kg of propranolol and 0.2 mg/kg of thenyldiamine intravenously 3 minutes before iv injection of SRS-A. SRS-A was obtained from rat peritoneal cavities as described previously in Test Procedure 1. Each pool of rat ip fluid containing SRS-A was dose-ranged and a dose selected that was estimated to cause an average increase in intrapulmonary resistance to inflation in control cats by 4-6 mmHg. Test dose volumes ranged from 1.0 to 2.0 ml/kg, iv. […] Both test compounds and the sodium hydroxide vehicle were injected iv 5 minutes before the injections of SRS-A (2 minutes before the injection of propranolol and thenyldiamine).

[4] = Oral toxicity, 5 weeks, rhesus monkeys; format: in vivo, rhesus monkey
Method: The oral toxicity of compound b at doses of 5.0, 32.0, 75.0 and 200 mg/kg/day for 5 weeks was studied in rhesus monkeys.

[5] = test system: SRS-A; assay: Test Procedure 4: competitive antagonism to SRS-A in anesthetized guinea pigs; format: in vivo, guinea pig
Source text: The intratracheal pressure (ITP) of anesthetized, artificially respired guinea pigs (Konzett-Rossler preparation) was monitored and peak increases in ITP recorded. The basic methodology was the same as that described hereinabove for Test Procedure 2 except that the basic experimental unit was not two guinea pigs (medicated and control) but three guinea pigs examined in an uninterrupted sequence: a control guinea pig receiving the standard dose of SRS-A, a medicated guinea pig receiving the standard dose of SRS-A and a medicated guinea pig receiving a multiple dose of SRS-A. In this manner, the ratios of peak responses of the same sample of SRS-A could be determined for medicated/control guinea pigs (standard procedure), and for medicated guinea pigs receiving the standard dose of SRS-A. The multiple dose of SRS-A in these studies was either 3× or 6× the standard dose.

[6] = test system: SRS-A; assay: Test Procedure 1: antagonism of SRS-A-induced bronchoconstriction in unanesthetized guinea pigs; format: in vivo, guinea pig
Method: The test compounds were administered orally to four guinea pigs/group 1 hour before the SRS-A challenge. The test compounds were prepared as suspensions in 1% gum tragacanth. Bronchoconstriction was graded 1+ to 3+ according to severity (1+ denoted restlessness and slight thoracic dyspnea, 2+ denoted moderate thoracic dyspnea and 3+ denoted convulsive dyspnea, regardless of whether the guinea pig died of asphyxiation or recovered).

[7] = test system: SRS-A; assay: Test Procedure 3: SRS-A-induced increase in resistance to pulmonary inflation in anesthetized cats; format: in vivo, cat; remark: listed apart in the source
[8] = test system: bradykinin; assay: animal or person; conditions: Cavia porcellus, iv, read-out: lowest dose that resulted in significant inhibition
Method: Antagonism of bradykinin-induced bronchoconstriction in guinea pigs was determined by measuring increases in resistance to artificial pulmonary inflation (Konzett-Rossler preparation). […] Due to large variations in bronchoconstricting responses among individual guinea pigs, each guinea pig serves as its own control and was challenged with bradykinin twice. The second response to bradykinin was expressed as percent of the first response to bradykinin. […] All guinea pigs having a first bradykinin response of less than 12 mm Hg were rejected as poor responders. […] In order to augment the bronchoconstrictor response, each guinea pig received 100 mcg propranolol/kg, iv, 5 minutes before the first injection of bradykinin (30 mcg/kg, iv). […] Five minutes after the injection of a test compound the guinea pigs received the second injection of bradykinin and the peak of the response determined. The effects of both test compounds were expressed as % inhibition of bradykinin-induced increase in bronchial resistance to forced inflation, as compared to the levels of bronchial resistance following iv administration of their respective solvent controls.

[9] = rat, in vivo, po, 640 mg/kg/day
[10] = rhesus monkey, in vivo, po, 200 mg/kg/day

**Q.** Which results are given for `COc1ccc2c(c1)c1c(n2C(=O)c2ccccc2)CCC(C(=O)O)C1` (stereo not shown) [Compound b, 9-benzoyl-6-methoxy-1,2,3,4-tetrahydrocarbazole-3-carboxylic acid]?
**A.** % Inhibition [1]: 9%; Peak Increase in Intracheal Pressure, mm Hg [1]: 21 ± 4 mm Hg; effect against acetylcholine-induced bronchoconstriction [1]: inactive; also recorded: ineffectiveness; mortality ([2]; oral 1280 mg/kg/day): all rats died within 18 days; growth rate [2, 9]: slightly depressed; hematocrit [2, 9]: minimally lower than controls; hemoglobin concentration [2, 9]: minimally lower than controls; number of red blood cells [2, 9]: minimally lower than controls; tolerability ([2]; rat, in vivo, po, 1280 mg/kg/day): not well tolerated; ED50 ([3]; Felis catus, 5 min, intravenous): 0.028 ± 0.024 mg/kg; Max. Increase in Resistance to Pulm. Inflation, mm Hg ± S.E. ([3]; intravenous 0.01 mg/kg): 4.1 ± 1.3 mm Hg; % Inhibition ([3]; intravenous 0.1 mg/kg): 73%; Max. Increase in Resistance to Pulm. Inflation, mm Hg ± S.E. ([3]; intravenous 1.0 mg/kg): 0.1 ± 0.1 mm Hg; inhibition of SRS-A-induced increase in resistance to inflation ([3]; intravenous 1.0 mg/kg): complete inhibition; mortality ([4]; oral 5.0, 32.0 and 75.0 mg/kg/day, 5 weeks): no mortality occurred; gross or microscopic histopathologic changes ([4]; rhesus monkey, in vivo): No gross or microscopic histophathologic changes were found; deaths attributed to medication [4, 10]: two deaths attributed to medication occurred; tolerability [4, 10]: not well tolerated; Ratio of peak responses, medicated (high dose SRS-A)/controls ([5]; 2.0 mg/kg iv, SRS-A lot B, 6x dose 12 ml/kg): 2.14 ± .68 and 2.14; Ratio of peak responses, medicated (low dose SRS-A)/controls ([5]; 2.0 mg/kg iv, SRS-A lot B, standard dose 2 ml/kg): 0.14 ± 0.7 and 0.14; % Inhibition ([5]; 2.0 mg/kg iv, six-fold SRS-A dose): 0%; % Inhibition ([5]; 2.0 mg/kg iv, standard dose of SRS-A): 86%; Ratio of peak responses, medicated (high dose SRS-A)/controls ([5]; 3.3 mg/kg iv, SRS-A lot A, 3x dose 12 ml/kg): 0.76 ± .20 and 0.76; Ratio of peak responses, medicated (low dose SRS-A)/controls ([5]; 3.3 mg/kg iv, SRS-A lot A, standard dose 4 ml/kg): 0.12 ± 0.3 and 0.12; % Inhibition ([5]; 3.3 mg/kg iv, standard dose of SRS-A): 88%; % Inhibition ([5]; 3.3 mg/kg iv, three-fold SRS-A dose): 24%; mode of antagonism to SRS-A ([5]; iv): competitive antagonist to SRS-A; Incidence of Severe Bronchospasms, % ([6]; 0.4 mg/kg p.o.): 75%; Incidence of Severe Bronchospasms, No. Bronchosp./No. Tested ([6]; 0.4 mg/kg p.o.): 15/20; Incidence of Severe Bronchospasms, % ([6]; 1.6 mg/kg p.o.): 42%; Incidence of Severe Bronchospasms, No. Bronchosp./No. Tested ([6]; 1.6 mg/kg p.o.): 8/19; inhibition of severe SRS-A induced bronchospasm ([6]; 6.2 mg/kg oral): completely inhibited; Incidence of Severe Bronchospasms, % ([6]; 6.2 mg/kg p.o.): 0%; Incidence of Severe Bronchospasms, No. Bronchosp./No. Tested ([6]; 6.2 mg/kg p.o.): 0/19; Incidence of Severe Bronchospasms, % ([6]; 25 mg/kg p.o.): 4%; Incidence of Severe Bronchospasms, No. Bronchosp./No. Tested ([6]; 25 mg/kg p.o.): 1/23; Incidence of Severe Bronchospasms, % ([6]; 100 mg/kg p.o.): 0%; Incidence of Severe Bronchospasms, No. Bronchosp./No. Tested ([6]; 100 mg/kg p.o.): 0/20; Incidence of Severe Bronchospasms, % ([6]; 400 mg/kg p.o.): 0%; Incidence of Severe Bronchospasms, No. Bronchosp./No. Tested ([6]; 400 mg/kg p.o.): 0/10; ED50 ([6]; Cavia porcellus, po, 1 hour before SRS-A, read-out: AED50): 2.3 mg/kg; Potency (Phenylbutazone = 1) (95% confidence limits) ([6]; p.o., 1 hour before SRS-A): 4.0 (2.1-8.2); % Inhibition ([7]; intravenous 0.01 mg/kg): 30%; Max. Increase in Resistance to Pulm. Inflation, mm Hg ± S.E. ([7]; intravenous 0.1 mg/kg): 1.6 ± 0.5 mm Hg; % Inhibition ([7]; intravenous 1.0 mg/kg): 98%; increase in resistance in one of seven cats ([7]; intravenous 1.0 mg/kg): 0.5 mm Hg; % Inhibition ([7]; oral 0.33 mg/kg): 25%; Max. Increase in Resistance to Pulm. Inflation, mm Hg ± S.E. ([7]; oral 0.33 mg/kg): 3.1 ± 0.3 mm Hg; % Inhibition ([7]; oral 1.0 mg/kg): 49%; Max. Increase in Resistance to Pulm. Inflation, mm Hg ± S.E. ([7]; oral 1.0 mg/kg): 2.0 ± 0.8 mm Hg; % Inhibition ([7]; oral 3.3 mg/kg): 85%; Max. Increase in Resistance to Pulm. Inflation, mm Hg ± S.E. ([7]; oral 3.3 mg/kg): 0.6 ± 0.5 mm Hg; % Inhibition ([7]; oral 10.0 mg/kg): 98%; Max. Increase in Resistance to Pulm. Inflation, mm Hg ± S.E. ([7]; oral 10.0 mg/kg): 0.1 ± 0.1 mm Hg; minimal effective dose [8]: 1 mg/kg
